Measurements: patent US20120041062A1, “COMPOUND OF SALVIANOLIC ACID L, PREPARATION METHOD AND USE THEREOF” (Tianjin Tasly Pharmaceutical Co., Ltd., priority 2009, published 2012)

Legend:
[1] = test system: PC12 cell of oxygen-glucose deprivation; test: Cell survival rate of PC12 cell of oxygen-glucose deprivation (MTT method); type: cell-based; conditions: pre-treated 6 hours
Experimental: (§1) a. MTT was added into 96-well microplate with 20 μl in each well, and reacted for 4 hours in incubator.
(§2) b. The supernatant was discarded, followed by addition of 150 μl DMSO in each well and shaken on flat shaking-table for 10 min.
(§3) c. Absorbance of each well was measured by ELISA reader at wavelength of 570 nm to calculate cell survival rate.
(§4) Cell survival rate %=(OD value of drug administration group/OD value of negative control group)×100%
(§5) a. PC12 cells at exponential growth phase in good condition were washed with PBS twice, followed by addition of 0.25% trypsin digestive solution to perform digestion at 37° C. for about 1 min. This reaction was ended by addition of blood serum-contained culture medium, centrifuged and resuspended, then counted the cells to prepare a suspension with a cell density of 2×10^4−4×10^4 cells/ml.
(§6) b. The resulting cell suspension was inoculated into 96-well microplate with 180 μl in each well (n=3) and incubated in constant temperature CO2 incubator at 37° C. for 24 hours.
c. Grouping and treatments: there were 3 groups: blank control group (normoxia+0.1% DMS0), model group (OGD+0.1% DMSO, oxygen-glucose deprivation) and positive control group (Edaravone).
Model group: the cell in culture microplate was cultured with glucose-free DMEM medium, which was placed in a hypoxic chamber, started to record time for 0.5 hour when O2% was less than 2.6, and then transferred to a routine incubator. The determination was carried out after a period of time of incubation.
Positive control group: Edaravone (2 μg/ml) was used as a positive drug. Drug was added and pre-treated for 6 hours, and then replaced with glucose-free medium, 180 μl per well. The drug was added again, placed in a hypoxic chamber, started to record time for 0.5 hour when O2% was less than 2.6, and then transferred to a routine incubator. The determination was carried out after a period of time of incubation.
(§7) d. The cell activity was determined by MTT method.
(§8) c. Grouping and treatments: there were 4 groups: blank control group (normoxia+0.1% DMSO), model group (OGD+DMSO, oxygen-glucose deprivation), positive control group (Edaravone) and the drug treatment group.
(§9) Model group: the culture medium for the cells in microplate was changed to glucose-free DMEM, placed in a hypoxic chamber, and started to record time for 0.5 hour when O2% was less than 2.6, and then transferred to a routine incubator to culture overnight.
(§10) Positive control group: Edaravone (2 μg/ml ) was used as a positive drug. Drug was added and pre-treated for 6 hours, and then the culture medium was replaced with glucose-free DMEM medium, 180 μl per well. The drug was added again, placed in a hypoxic chamber, started to record time for 0.5 hour when 02% was less than 2.6, and then transferred to a routine incubator to culture overnight.
(§11) Drug treatment group: the drug at different concentrations was added and pre-treated for 6 hours, the culture medium was changed to glucose-free DMEM medium, 180 μl per well. The drug was added again, placed in a hypoxic chamber, started to record time for 0.5 hour when O2% was less than 2.6, and then transferred to a routine incubator to culture overnight.
e. The activity of cell was determined by MTT method.

H2O2-damaged PC12 cell [2] = test: LDH activity of H2O2-damaged PC12 cell; type: cell-based; conditions: pre-treated 6 hours, 0.5 mM H2O2 1 hour, supernatant
Experimental: (§12) The experiment of determination was carried out according to the Specification of LDH test kit provided by Nanjing Jiangcheng Bioengineering Institute.
(§13) LDH activity (U/L)=(ODU−ODC)/(ODS−ODB)×CS×N×1 000
(§14) Wherein, ODU represented the absorbance of the tested sample, ODC represented the absorbance of control sample, ODB represented the absorbance of blank, ODS represented the absorbance of standard solution, CS represented the standard concentration of 2 mmol/L, N represented the dilution multiple of sample before determination.
as §5, §6
(§15) c. Grouping and treatments: there were 5 groups: blank control group (PBS), solvent control group (DMSO or ethyl acetate), model group (H2O2), positive control group (Edaravone) and drug treatment group.
(§16) Model group: 0.5 mM hydrogen peroxide (H2O2) was used to treat for 1 hour.
(§17) Positive control group: Edaravone (2 μg/ml ), used as a positive drug, was added to cell and pre-treated for 6 hours, into which 0.5 mM hydrogen peroxide was added to damage for 1 hour and replaced with freshly-prepared DMEM+10%FBS culture medium.
(§18) Drug treatment group: after the cell was inoculated into culture microplate, different tested drugs at different concentration were added firstly and pre-treated for 6 hours with 20 μl per well, into which 0.5 mM H2O2 was added to damage for 1 hour, and then replaced with freshly-prepared DMEM+10%FBS culture medium.
d. The supernatant was collected, 20 μl per well, for determination of LDH activity.

H2O2-damaged PC12 cell [3] = test: Cell survival rate of H2O2-damaged PC12 cell (MTT method); type: cell-based; conditions: pre-treated 6 hours, 0.5 mM H2O2 1 hour
Experimental: as §1, §2, §3, §4
a. PC12 cells at, exponential growth phase in good condition were washed with PBS twice, followed by addition of 0.25% trypsin digestive solution to perform digestion at 37° C. for about 1 min. This reaction was ended by addition of blood serum-contained culture medium, centrifuged and resuspended, then counted the cells to prepare a suspension with a cell density of 2×10^4−4×10^4 cells/ml.
as §6
c. Grouping and treatments: there were 4 groups: blank control group (PBS), solvent control group (DMSO), model group (H2O2) and positive control group (Edaravone).
Positive control group: Edaravone (2 μg/ml) is added as a positive drug and then pre-treated for 6 hours, into which 0.5 mM hydrogen peroxide was added to damage for 1 hour and replaced with freshly-prepared DMEM+10%FBS culture medium, 200 μl per well.
as §7, §5, §15, §16, §17, §18
e. The activity of cell in cell microplate was determined by MTT method.

[4] = test system: PC12 cell of oxygen-glucose deprivation (OGD); test: LDH activity of PC12 cell of oxygen-glucose deprivation (OGD); type: cell-based; conditions: pre-treated 6 hours, OGD 0.5 hour, cultured overnight, supernatant
Experimental: as §12, §13, §14, §5, §6, §8, §9, §10, §11
d. Resulting supernatant was collected the next day with 20 μl per well, which was used for determination of LDH activity.

[5] = DPPH free-radical scavenging reaction; type: biochemical; conditions: for DPPH free-radical scavenging rate: 20 min, 25° C., 517 nm
Experimental: In this study, 1,1-diphenyl-2-picryl-hydrazyl (DPPH) free-radical scavenging reaction model has been used to observe the free-radical scavenging activity of the salvianolic acid L. The total reaction volume was 2 ml. 1 ml of the sample solutions at different concentrations in 80% methanol (v/v) were added into 100 μM of DPPH methanol solution, mixed uniformly to allow the solution to react for 20 min at 25° C. in the dark. Absorbance of the reaction solution was measured at 517 nm. In this study, vitamin C was regarded as a positive control. Free-radical scavenging rate was calculated in accordance with the following equation: Free-radical scavenging rate (%)=[1−Asample/Acontrol)/Acontrol]×100% Wherein, the Asample means the absorbance of the tested samples, and Acontrol means the absorbance of blank control.

[6] = Determination of reducing capacity (potassium ferricyanide / ferric chloride, absorbance at 700 nm); type: biochemical; conditions: FIG. 10; in words, compared with vitamin C
Experimental: 0.5 ml of 200 mM phosphate buffer (pH6.8) containing different concentrations of the salvianolic acid L and 1.0% potassium ferricyanide solution were sucked respectively and cooled on an ice bath after being heated on a water bath (50° C.) for 20 min. 0.5 ml of trichloroacetic acid solution (10%) was added and centrifuged at […] for 10 min. 1.0 ml of the resulting supernatant was taken, into which 1.0 ml of distilled water and 0.2 ml of ferric chloride solution (0.1%) were added, stood still for 10 min and the absorbance was measured at 700 nm. Meanwhile, the blank experiment was carried out. Vitamin C is a strongly reducing substance, acting as positive control in this study. Reducing capacity of the sample is represented by subtracting the absorbance of the blank control from the absorbance of the tested sample. Thus, it means the higher absorbance, the stronger reducing capacity.

[7] = final concentration 0.02 μg/ml, OGD 0.5 hour, cultured overnight
[8] = final concentration 0.2 μg/ml, OGD 0.5 hour, cultured overnight
[9] = final concentration 2 μg/ml, OGD 0.5 hour, cultured overnight

| SMILES | Survival rate (%) [1, 7] | Survival rate (%) [1, 8] | Survival rate (%) [1, 9] | LDH activity (U/L) (H2O2-damaged PC12 cell [2]; final concentration 0.02 μg/ml) | LDH activity (U/L) (H2O2-damaged PC12 cell [2]; final concentration 0.2 μg/ml) | LDH activity (U/L) (H2O2-damaged PC12 cell [2]; final concentration 2 μg/ml) | Survival rate (%) (H2O2-damaged PC12 cell [3]; final concentration 0.02 μg/ml) | Survival rate (%) (H2O2-damaged PC12 cell [3]; final concentration 0.2 μg/ml) | Survival rate (%) (H2O2-damaged PC12 cell [3]; final concentration 2 μg/ml) | LDH activity (U/L) ([4]; final concentration 0.02 μg/ml) | LDH activity (U/L) ([4]; final concentration 0.2 μg/ml) | LDH activity (U/L) ([4]; final concentration 2 μg/ml) | DPPH free-radical scavenging rate ([5]; sample 0.314 μg/ml) | DPPH free-radical scavenging rate ([5]; sample 0.625 μg/ml) | DPPH free-radical scavenging rate ([5]; sample 1.25 μg/ml) | DPPH free-radical scavenging rate ([5]; sample 2.5 μg/ml) | DPPH free-radical scavenging rate ([5]; sample 5 μg/ml) | also measured |
| --- | --- | --- | --- | --- | --- | --- | --- | --- | --- | --- | --- | --- | --- | --- | --- | --- | --- | --- |
| CC1=NN(c2ccccc2)C(=O)C1 [Edaravone] | 44.75 ± 1.02 % | 36.37 ± 2.52 % | 39.99 ± 0.55 % | 532.44 ± 11.55 U/L | 568.23 ± 11.55 U/L | 523.49 ± 5.17 U/L | 47.6 ± 2 % | 44.2 ± 6.11% | 58.18 ± 2.64 % | 40.27 ± 5.17 U/L | 22.37 ± 5.17 U/L | 31.32 ± 5.17 U/L |  |  |  |  |  | Survival rate (%) ([1]; establishment of oxygen-glucose deprivation model, 2 μg/ml): 48.50 ± 1.81 %; Survival rate (%) (H2O2-damaged PC12 cell [3]; establishment of hydrogen peroxide-damaged model, 2 μg/ml): 53.54 ± 3.66 % |
| O=C1O[C@H]([C@@H](O)CO)C(O)=C1O [Vitamin C] |  |  |  |  |  |  |  |  |  |  |  |  | 3.42 ± 0.42% | 7.06 ± 1.88% | 13.82 ± 1.83% | 29.39 ± 5.92% | 55.34 ± 7.21% |  |
| O=C(/C=C/c1ccc(O)c(O)c1/C(=C/c1ccc(O)c(O)c1)C(=O)O)OC(Cc1ccc(O)c(O)c1)C(=O)O (centres unmarked) [salvianolic acid L] | 47.74 ± 1.72 % | 36.68 ± 2.72 % | 35.96 ± 1.44% | 550.336 ± 25.83 U/L | 474.27 ± 71.96 U/L | 487.70 ± 72.51 U/L | 47.2 ± 0.8 % | 44.89 ± 0.48% | 48.34 ± 0.25% | 53.69 ± 29.23 U/L | 31.32 ± 11.55 U/L | 40.27 ± 5.17 U/L | 5.41 ± 0.74% | 12.95 ± 2.42% | 25.21 ± 1.82% | 44.19 ± 3.70% | 83.17 ± 4.12% | DPPH free-radical scavenging rate (in words) ([5]; compared with vitamin C, Table 3 and FIG. 9): much higher free-radical scavenging rate than that of the vitamin C; reducing capacity (absorbance at 700 nm minus blank) [6]: much stronger than that of vitamin C |
